# Legend:
# [1] = target: T1, full length heterotrimeric human RPA (Homo sapiens, UniProt P27694); assay: Electrophoretic mobility shift assay (EMSA), binding of full length human RPA to ssDNA; details: for IC50: full length human RPA binding to DNA, mean ± SD of minimum triplicate experiments
# T1 construct: Full length, heterotrimeric human RPA (fl-RPA) and DBD-A/B constructs were expressed and purified; made in house
# Protocol: Full length, heterotrimeric human RPA (fl-RPA) and DBD-A/B constructs were expressed and purified according to previously described protocol. The DBD-A/B construct was expressed as a His6-RPA181-422 fusion protein. E. coli BL21 (DE3) cells in log growth were induced for 3 h with 0.5 mM IPTG at 37° C. The cells were lysed via sonication in buffer containing 20 mM Tris pH 7.5, 500 mM NaCl, 10 mM b-mercaptoethanol, supplemented with 25 μg/mL lysozyme, 1 μg/mL leupeptin, 1 μg/mL pepstatin and 0.5 mM PMSF. The lysate was applied to a 20 mL phosphocellulose column equilibrated in the same buffer and the flow-through material collected, brought to 5 mM Imidazole and loaded onto a 2 ml Ni-NTA column. The column was washed and proteins eluted on with a gradient from 50 mM to 500 mM imidazole. Fractions were assessed by EMSA and SDS-PAGE and DBD-A/B containing fraction were pool, dialyzed against buffer containing 50 mM HEPES pH 7.0, 500 mM NaCl and 1 mM DTT and stored at −80° C.
# EMSAs were carried out using previously described procedure with the following modification. EMSA reactions (20 μL) were performed with 50 nM fl-RPA and 2.5 nM 5′ [^32P]-labeled 34-base DNA in buffer containing 20 mM HEPES (pH 7.8), 1 mM DTT, 0.001% NP-40, 50 mM NaCl. Chemical compounds were suspended in DMSO and DMSO concentration in the reaction mixture was kept constant at 2% or below 5%. RPA was incubated with inhibitor or DMSO control in reaction buffer for 30 min before the addition of DNA. Reactions were incubated for 5 min at room temperature and products separated via 6% native polyacrylamide gel electrophoresis. The bound and unbound fractions were then quantified by phosphor-imager analysis using ImageQuant software (Molecular Dynamics, CA) and IC50 values calculated by non-linear regression using SigmPlot (Sysat). For EMSA reactions with RPA DBD-A/B, 150 nM DBD-A/B was used, and electrophoresis was performed at 4° C. All other conditions were identical to those described for the full-length RPA.
# Purified full length heterotrimeric human RPA protein was used to screen a series of analogs in an electrophoretic mobility shift assay (EMSA) measuring direct binding to a ss-DNA substrate. Quantification of the EMSA data and additional concentration dependent analysis to measure IC50 values of newly synthesized analogs provided potential insight into the structure-activity relationships (Table 1 and 2). […] Fluorine and trifluoromethyl substituents were included in pyridinyl compounds 28-29.
# [2] = test system: sonicated salmon sperm DNA; assay: Fluorescent intercalator displacement (FID) assay, SYBR-Green; type: binding; details: 25 mM MOPS pH 6.5
# Protocol: The analysis of compound interactions with DNA was determined by inhibition of SYBR-Green intercalation into DNA as we have previously described. Briefly, reactions were performed in 25 mM MOPS (pH 6.5) containing sonicated salmon sperm DNA (8.29 ng/μL), SYBR-Green, and the indicated concentrations of RPA inhibitors. Reactions were conducted in black 96-well plates. Doxorubicin, a known noncovalent DNA binding chemotherapeutic, was used as a positive control. Fluorescence was measured using a BioTek® Synergy™ H1 hybrid multi-mode microplate reader with an excitation wavelength of 485 nm, emission wavelength of 528 nm, and a read height of 7 mm. Data were collected using BioTek® Gen5™ reader software. Reactions were incubated a maximum of 5 min before measurements were collected.
# In order to probe the potential role of DNA intercalation as a mechanism for RPA inhibition, compounds 19, 23, 26, 27, 43 and 45 were analyzed using FID assay along with doxorubicin (Dox) as a positive control. […] In addition, direct binding of 9 derivatives to the target protein was assessed using a differential scan fluorimetry (DSF) assay. This assay assesses the melting profile of a protein at increasing temperatures via fluorescent dye binding. The direct interaction of a small molecule to the target protein can either increase or decrease the melting temperature (Tm) of the target depending on the specific protein and their interactions. […] Heparin sulfate, a known RPA interacting molecule often used in the purification of the protein was used as a control. […] (data not shown). […] (FIG. 1B).
# [3] = Aqueous solubility in unbuffered water; type: physicochemical; details: 43, 44, 45, 46, 47 vs 9, 16, 26, 28, 29 respectively
# Protocol: Aqueous solubility was determined by suspending compound in un-buffered water with stirring. Insoluble material was removed by sedimentation or filtration and soluble compound quantified by absorbance spectroscopy and LC/MS. pH dependence was determined by suspending compound in 10 mM citrate buffer at pH 4.0 or 10 mM phosphate […] as described above in the description.
# The morpholine ring is commonly introduced into solvent exposed regions as a privileged solubilizing group to improve solubility or pharmacokinetic properties including metabolic stability of a prospective drug scaffold which is exemplified by many FDA approved drugs. Modifications on Ring A had less of an effect than the morpholino modifications at the alkyl carboxylic acid side chain. To determine the effect of pH on solubility, we prepared solution at 1 mM in citrate buffer at pH 4, phosphate buffer at pH 7 and carbonate buffer at pH 9.5.
# T1 sequence (P27694 whole entry): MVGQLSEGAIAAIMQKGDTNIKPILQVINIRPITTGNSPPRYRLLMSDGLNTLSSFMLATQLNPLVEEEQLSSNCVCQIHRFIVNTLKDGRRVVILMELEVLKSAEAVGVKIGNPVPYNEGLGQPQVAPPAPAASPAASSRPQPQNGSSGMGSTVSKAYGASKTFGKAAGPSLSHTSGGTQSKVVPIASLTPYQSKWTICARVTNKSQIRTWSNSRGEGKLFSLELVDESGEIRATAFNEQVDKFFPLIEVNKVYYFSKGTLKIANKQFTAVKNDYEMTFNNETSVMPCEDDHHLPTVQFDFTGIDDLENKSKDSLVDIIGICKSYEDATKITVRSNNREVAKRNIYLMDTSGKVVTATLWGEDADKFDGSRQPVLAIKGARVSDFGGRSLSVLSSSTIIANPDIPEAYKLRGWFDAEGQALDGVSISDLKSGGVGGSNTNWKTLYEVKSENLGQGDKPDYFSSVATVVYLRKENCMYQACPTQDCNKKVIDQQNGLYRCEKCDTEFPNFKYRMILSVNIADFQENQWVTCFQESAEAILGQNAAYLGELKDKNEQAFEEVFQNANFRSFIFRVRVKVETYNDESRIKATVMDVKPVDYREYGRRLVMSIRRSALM
# T1 sequence (P15927 whole entry partner): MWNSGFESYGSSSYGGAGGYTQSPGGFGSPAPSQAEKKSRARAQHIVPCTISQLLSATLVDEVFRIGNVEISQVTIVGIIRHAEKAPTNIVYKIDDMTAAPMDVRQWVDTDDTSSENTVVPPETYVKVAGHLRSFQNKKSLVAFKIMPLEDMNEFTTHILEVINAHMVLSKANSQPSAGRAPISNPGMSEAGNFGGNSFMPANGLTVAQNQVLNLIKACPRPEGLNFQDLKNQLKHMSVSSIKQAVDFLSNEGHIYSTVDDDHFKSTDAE
# T1 sequence (P35244 whole entry partner): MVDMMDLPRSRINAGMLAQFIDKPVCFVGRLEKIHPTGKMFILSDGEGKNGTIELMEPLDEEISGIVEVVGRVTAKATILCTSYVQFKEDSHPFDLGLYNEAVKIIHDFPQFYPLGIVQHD
Structure (SMILES),IC50 [1] [µM],also measured
"CCOc1ccc2cc(C3CC(c4ccc(Br)cc4)=NN3C(=O)CCCC(=O)O)c(Cl)nc2c1 (stereo not shown) [Compound 16, 5-(3-(4-Bromophenyl)-5-(2-chloro-7-ethoxyquinolin-3-yl)-4,5-dihydro-1H-pyrazol-1-yl)-5-oxopentanoic acid]",19.2 ± 4.17,
"CCOc1ccc2cc(C3CC(c4ccc(O)cc4)=NN3C(=O)CCCC(=O)O)c(Cl)nc2c1 (stereo not shown) [Compound 17, 5-(5-(2-Chloro-7-ethoxyquinolin-3-yl)-3-(4-hydroxyphenyl)-4,5-dihydro-1H-pyrazol-1-yl)-5-oxopentanoic acid]",> 25,
"CCOc1ccc2cc(C3CC(c4ccc([N+](=O)[O-])cc4)=NN3C(=O)CCCC(=O)O)c(Cl)nc2c1 (stereo not shown) [Compound 18, 5-(5-(2-Chloro-7-ethoxyquinolin-3-yl)-3-(4-nitrophenyl)-4,5-dihydro-1H-pyrazol-1-yl)-5-oxopentanoic acid]",> 25,
"CCOc1ccc2cc(C3CC(c4ccc(N)cc4)=NN3C(=O)CCCC(=O)O)c(Cl)nc2c1 (stereo not shown) [Compound 19, 5-(3-(4-Aminophenyl)-5-(2-chloro-7-ethoxyquinolin-3-yl)-4,5-dihydro-1H-pyrazol-1-yl)-5-oxopentanoic acid]",2.34 ± 0.22,DNA binding activity (displacement of SYBR-Green intercalator) [2]: No significant DNA binding activity
"C=CC(=O)Oc1ccc(C2=NN(C(=O)CCCC(=O)O)C(c3cc4ccc(OCC)cc4nc3Cl)C2)cc1 (stereo not shown) [Compound 20, 5-(3-(4-(Acryloyloxy)phenyl)-5-(2-chloro-7-ethoxyquinolin-3-yl)-4,5-dihydro-1H-pyrazol-1-yl)-5-oxopentanoic acid]",8.98 ± 0.98,fold increase in potency/activity compared to compound 9 ([1]; full length RPA): 2 fold
"CCOc1ccc2cc(C3CC(c4ccc(OC(=O)N5CCOCC5)cc4)=NN3C(=O)CCCC(=O)O)c(Cl)nc2c1 (stereo not shown) [Compound 21, 5-(5-(2-Chloro-7-ethoxyquinolin-3-yl)-3-(4-((morpholine-4-carbonyl)oxy)phenyl)-4,5-dihydro-1H-pyrazol-1-yl)-5-oxopentanoic acid]",> 25,RPA inhibitory activity compared to compound 9 (in words) ([1]; full length RPA): decreased RPA inhibition
"CCOc1ccc2cc(C3CC(c4ccc(-c5ccoc5)cc4)=NN3C(=O)CCCC(=O)O)c(Cl)nc2c1 (stereo not shown) [Compound 22, 5-(5-(2-chloro-7-ethoxyquinolin-3-yl)-3-(4-(furan-3-yl)phenyl)-4,5-dihydro-1H-pyrazol-1-yl)-5-oxopentanoic acid]",6.77 ± 0.64,
"CCOc1ccc2cc(C3CC(c4ccc(-c5ccc(F)nc5)cc4)=NN3C(=O)CCCC(=O)O)c(Cl)nc2c1 (stereo not shown) [Compound 28, 5-(5-(2-Chloro-7-ethoxyquinolin-3-yl)-3-(4-(6-fluoropyridin-3-yl)phenyl)-4,5-dihydro-1H-pyrazol-1-yl)-5-oxopentanoic acid]",2.66 ± 0.6,
"CCOc1ccc2cc(C3CC(c4ccc(-c5ccc(C(F)(F)F)nc5)cc4)=NN3C(=O)CCCC(=O)O)c(Cl)nc2c1 (stereo not shown) [Compound 29, 5-(5-(2-Chloro-7-ethoxyquinolin-3-yl)-3-(4-(6-(trifluoromethyl)pyridin-3-yl)phenyl)-4,5-dihydro-1H-pyrazol-1-yl)-5-oxopentanoic acid]",4.35 ± 0.42,
"CCOC(=O)CCCC(=O)N1N=C(c2ccc(I)cc2)CC1c1cc2ccc(OCC)cc2nc1Cl (stereo not shown) [Compound 30, ethyl 5-(5-(2-chloro-7-ethoxyquinolin-3-yl)-3-(4-iodophenyl)-4,5-dihydro-1H-pyrazol-1-yl)-5-oxopentanoate]",> 25,RPA inhibitory activity compared to compound 9 (in words) ([1]; full length RPA): decreased RPA inhibitory activity
"CCOc1ccc2cc(C3CC(c4ccc(I)cc4)=NN3C(=O)CCCCC(=O)O)c(Cl)nc2c1 (stereo not shown) [Compound 37, 6-(5-(2-Chloro-7-ethoxyquinolin-3-yl)-3-(4-iodophenyl)-4,5-dihydro-1H-pyrazol-1-yl)-6-oxohexanoic acid]",6.86 ± 0.23,
"CCOc1ccc2cc(C3CC(c4ccc(I)cc4)=NN3C(=O)CCCCCC(=O)O)c(Cl)nc2c1 (stereo not shown) [Compound 38, 7-(5-(2-Chloro-7-ethoxyquinolin-3-yl)-3-(4-iodophenyl)-4,5-dihydro-1H-pyrazol-1-yl)-7-oxoheptanoic acid]",9.93 ± 1.23,
"CCOc1ccc2cc(C3CC(c4ccc(I)cc4)=NN3c3cccc(C(=O)O)c3)c(Cl)nc2c1 (stereo not shown) [Compound 39, 3-(5-(2-Chloro-7-ethoxyquinolin-3-yl)-3-(4-iodophenyl)-4,5-dihydro-1H-pyrazol-1-yl)benzoic acid]",> 25,
"CCOc1ccc2cc(C3CC(c4ccc(I)cc4)=NN3c3ccc(C(=O)O)cc3)c(Cl)nc2c1 (stereo not shown) [Compound 40, 4-(5-(2-Chloro-7-ethoxyquinolin-3-yl)-3-(4-iodophenyl)-4,5-dihydro-1H-pyrazol-1-yl)benzoic acid]",> 25,
"CCOc1ccc2cc(C3CC(c4ccc(I)cc4)=NN3C(=O)CCCC(=O)N3CCOCC3)c(Cl)nc2c1 (stereo not shown) [Compound 41, 1-(5-(2-Chloro-7-ethoxyquinolin-3-yl)-3-(4-iodophenyl)-4,5-dihydro-1H-pyrazol-1-yl)-5-morpholinopentane-1,5-dione]",6.63 ± 0.48,
"CCOc1ccc2cc(C3CC(c4ccc(I)cc4)=NN3C(=O)CCCC(=O)NCCN3CCOCC3)c(Cl)nc2c1 (stereo not shown) [Compound 42, 5-(5-(2-Chloro-7-ethoxyquinolin-3-yl)-3-(4-iodophenyl)-4,5-dihydro-1H-pyrazol-1-yl)-N-(2-morpholinoethyl)-5-oxopentanamide]",10.5 ± 0.68,
"CCOc1ccc2cc(C3CC(c4ccc(Br)cc4)=NN3C(=O)CCCC(=O)NCCCN3CCOCC3)c(Cl)nc2c1 (stereo not shown) [Compound 44, 5-(3-(4-Bromophenyl)-5-(2-chloro-7-ethoxyquinolin-3-yl)-4,5-dihydro-1H-pyrazol-1-yl)-N-(3-morpholinopropyl)-5-oxopentanamide]",10 ± 1.46,aqueous solubility compared to carboxylic acid counterpart (in words) [3]: increased solubility
"CCOc1ccc2cc(C3CC(c4ccc(-c5ccc(F)nc5)cc4)=NN3C(=O)CCCC(=O)NCCCN3CCOCC3)c(Cl)nc2c1 (stereo not shown) [Compound 46, 5-(5-(2-Chloro-7-ethoxyquinolin-3-yl)-3-(4-(6-fluoropyridin-3-yl)phenyl)-4,5-dihydro-1H-pyrazol-1-yl)-N-(3-morpholinopropyl)-5-oxopentanamide]",2.29 ± 0.31,aqueous solubility compared to carboxylic acid counterpart (in words) [3]: increased solubility
"COc1cccc2c1C(=O)c1c(O)c3c(c(O)c1C2=O)C[C@@](O)(C(=O)CO)C[C@@H]3O[C@H]1C[C@H](N)[C@H](O)[C@H](C)O1 [doxorubicin, reference compound]",,DNA binding activity (displacement of SYBR-Green intercalator) [2]: concentration dependent reduction in fluorescence

# From US12486246B2, “Replication protein A (RPA)-DNA interaction inhibitors” (THE TRUSTEES OF INDIANA UNIVERSITY, priority 2019, dated 2025)
